Source: patent US20220127584A1, “Reactive persulfides mediate sulfur respiration in mitochondria via sulfide:quinone oxidoreductase” (Bio-Xcelerator, Inc., priority 2020, published 2022)

Experiments:
WT and Sqrdl^ΔN/ΔN MEFs = assay: MEF mitochondrial membrane potential (JC-1 staining); assay type: cell-based, mouse
Description: To determine the membrane potential of mitochondria under several experimental conditions, JC-1 staining was performed according to the method previously reported ^37,38. Accumulation of the cell-permeable JC-1 probe (Abcam) in mitochondria depends on the membrane potential and is associated with a fluorescence emission shift from green (emission 527 nm) to red (emission 590 nm). Briefly, WT and Sqrdl^ΔN/ΔN MEFs, cultured in 8-well multichamber slides (Matsunami, Osaka, Japan) coated with collagen, were treated with mitochondrial ETC inhibitors (rotenone, atpenin A5, and antimycin A) the and ADP/ATP carrier inhibitor CATR^23 as described in the figure legends. For JC-1 staining, cultured cells were washed with HKRB buffer (20 mM HEPES, 103 mM NaCl, 4.77 mM KCl, 0.5 mM CaCl2, 1.2 mM MgCl2, 1.2 mM KH2PO4, 25 mM NaHCO3, and 15 mM glucose, pH 7.3), incubated with 20 μM JC-1 at 37° C. for 20 min, rinsed twice with HKRB buffer, and examined with a confocal laser scanning microscope (Nikon C2 plus, with NIS-Elements 5.01 software). ImageJ software was used for image processing and calculation of JC-1 fluorescence intensities.

[1] = test system: fission yeast (Schizosaccharomyces pombe); assay type: cell-based; settings: SQR-deficient yeast (Δhmt2) compared with WT yeast; increasing/high concentrations
[2] = test system: mitochondria from WT and Sqrdl^ΔN/ΔN MEFs; assay: Membrane potential of isolated mitochondria (TMRE time-lapse imaging); set-up: species or system mouse; settings: for membrane potential of isolated mitochondria: supplementation to isolated MEF mitochondria
Description: MEF mitochondria were isolated by differential centrifugation. WT and Sqrdl^ΔN/ΔN MEFs were homogenized in the extraction buffer (10 mM Tris-HCl, 250 mM sucrose, and 0.5 mM EGTA, pH 7.4) with a Dounce homogenizer (Teflon glass) and were centrifuged at 2,000 g at 4° C. for 5 min to remove nuclei and cell debris. The supernatants were centrifuged at 12,000 g at 4° C. for 10 min, and mitochondrial pellets were washed three times with buffer and kept at −80° C. until use.
To determine the membrane potential in isolated mitochondria under several experimental conditions, TMRE staining was performed according to the method previously reported^40. The TMRE fluorescence intensity at a maximum emission of 574 nm depends on the mitochondrial membrane potential. Briefly, mitochondria from WT and Sqrdl^ΔN/ΔN MEFs were adsorbed on the bottom of 8-well μ-Slides (Ibidi, Martinsreid, Germany) coated with poly-D-lysine (Sigma-Aldrich, St. Luis, Mo., USA), after which they were stained with 10 nM TMRE (Biotium, Fremont, Calif., USA) and 50 nM MitoTracker Green FM (Thermo Fisher Scientific, Waltham, Mass., USA) at 25° C. for 10 min. TMRE fluorescence intensity (561 nm excitation and 605±15 nm emission), which is positive with MitoTracker Green FM fluorescence, was measured in individual mitochondria by using the region of interest (ROI) tool of the confocal laser scanning microscope (Nikon C2 plus, with NIS elements version 5.01 software). […] Specifically, of 200 ROIs, the top 30 ROIs were selected for analysis of TMRE fluorescence intensity in response to TMPD/ascorbate, and their means and s.d. values were calculated.

[3] = test system: isolated mitochondria from WT and Sqrdl^ΔN/ΔN MEFs; assay: Quantification of sulfur metabolites in isolated mitochondria (LC-ESI-MS/MS); set-up: species or system mouse; settings: addition to isolated mitochondria
Description: Yeast, mouse tissues, and MEFs were analyzed for the low-molecular-weight analytes cysteine (CysSH), cysteine hydropersulfide (CysSSH), glutathione (GSH), glutathione hydropersulfide (GSSH), bis-S (H2S), bis-SS (HSSH), cystine (CysSSCys), oxidized glutathione, or glutathione disulfide (GSSG), oxidized glutathione trisulfide (GSSSG), and thiosulfate (HS2O3^−) as previously described^9. Briefly, samples were homogenized with a Psychotron homogenizer (Microtec Co. Ltd.) or sonicator in ice-cold methanol in the presence of 5 mM β-(4-hydroxyphenyl)ethyl iodoacetamide (HPE-IAM). Homogenates were incubated at 37° C. for 20 min and then centrifuged at 15,000 rpm at 4° C. for 10 min. Supernatants were separated and diluted 10 times with 0.1% formic acid. Stable isotope-labeled internal standards dissolved in 0.1% formic acid solution were added to the samples to a final concentration of 25 nM. A sample of 10 μl was injected into the LC-ESI-MS/MS instrument (LCMS-8060). Various persulfide derivatives were identified and quantified by means of MRM, as previously described^9. Cell pellets were reconstituted in 0.1% SDS in PBS buffer, homogenized by sonication, and centrifuged again at 15,000 rpm at 4° C. for 10 min. […] Each analyte concentration was normalized to the measured protein concentration. […]

[4] = test system: fission yeast (Schizosaccharomyces pombe); assay: Chronological life span of yeast; assay type: cell-based
Description: Three single colonies derived from each strain were analyzed, as previously described^31 with slight modification. Yeast cells were cultured in SC medium (at a starting OD600 of 0.1) at 30° C. with shaking. Measurement of cell viability began after 72 h of culture (day 0) and continued every 2-3 days by plating a fraction of the culture onto a fresh YPD plate (2% glucose, 0.5% yeast extract, 1% peptone, and 2% agar) to determine the number of colony-forming units (CFUs). […] Cell survival rates were calculated by normalizing the CFUs at each time point to the CFUs at day 0.

[5] = test system: mitochondria isolated from livers of WT and Sqrdl^ΔN/ΔN mice; assay: Oxygen consumption of liver mitochondria (Clark-type electrode); set-up: species or system mouse; settings: 10-μM NaHS supply
Description: Mitochondria were isolated from 4- to 6-week-old mice by using two-step differential centrifugations, as previously described^41 with minor modifications. In brief, after gallbladder removal, fresh liver specimens weighing 1.0-1.5 g were minced and homogenized in ice-cold isolation buffer (10 mM Tris/MOPS, 1 mM EGTA/Tris, and 200 mM sucrose, pH 7.4). When liver weight was less than 1 g, livers were pooled. Homogenate were centrifuged at 600 g and 4° C. for 10 min to remove cellular debris and nuclei. Supernatants containing mitochondrial fraction were then centrifuged at 7,000 g at 4° C. for 10 min. Obtained mitochondrial pellets were washed with new isolation buffer and underwent centrifugation again (7,000 g for 10 min). […] The protein concentration was determined with the BCA Protein Assay Kit (Thermo Fisher Scientific). Absorbance at 562 nm was measured with NanoDrop 2000 (Thermo Fisher Scientific).
Mitochondrial oxygen consumption was measured by using a Clark-type electrode (Oxytherm system; Hansatech Instruments, Norfolk, UK). […] The OCR through complex I was measured as a mitochondrial basic function by sequentially adding 2.5 mM malate/5 mM glutamate, 150 μM ADP, and 100 nM carbonyl cyanide 4-(trifluoromethoxy) phenylhydrazone (FCCP). The respiratory control index (RCI) was calculated by using the ratio of state 3 to state 4. […]

[6] = WT MEFs, increasing concentrations in the culture media, SQR-dependent

**Q.** Which mitochondrial membrane potential (WT and Sqrdl^ΔN/ΔN MEFs; Sqrdl^ΔN/ΔN MEFs, CATR treatment) does the source give for `C=C1[C@@H]2CC[C@H]3[C@]4(C)C[C@H](O[C@@H]5O[C@H](CO)[C@@H](OS(=O)(=O)O)[C@H](OS(=O)(=O)O)[C@H]5OC(=O)CC(C)C)CC(C(=O)O)(C(=O)O)[C@H]4CC[C@]3(C2)[C@H]1O` [CATR, carboxyatractyloside] here?
**A.** did not observe this increase

**Q.** And the mitochondrial membrane potential (WT and Sqrdl^ΔN/ΔN MEFs; WT MEFs, CATR treatment)?
**A.** increased the membrane potential

**Q.** Which “susceptibility of yeast growth to the substance” value [1] does the source give for `[Cl][Cd][Cl]` [Cd, CdCl2] here?
**A.** enhanced susceptibility to Cd toxicity

**Q.** Which “membrane potential of isolated mitochondria” value [2] does the source give for `N[C@@H](CCC(=O)N[C@@H](CSSSC[C@H](NC(=O)CC[C@H](N)C(=O)O)C(=O)NCC(=O)O)C(=O)NCC(=O)O)C(=O)O` [GSSSG, glutathione trisulfide] here?
**A.** increased the membrane potential

**Q.** And the “levels of glutathione hydropersulfide (GSSH)” value [3]?
**A.** increased levels of glutathione hydropersulfide (GSSH)

**Q.** What does the source list for `[Na+].[Na+].[S-][S-]` [Na2S2, sodium disulfide]?
**A.** chronological lifespan ([4]; SQR-deficient yeast): no effect; chronological lifespan ([4]; WT yeast): extended the lifespan; mitochondrial membrane potential (WT and Sqrdl^ΔN/ΔN MEFs; [6]): elevation of membrane potential; membrane potential of isolated mitochondria [2]: results that were quite similar to those induced by NaHS

**Q.** `S` [NaHS, sodium hydrosulfide] was tested. Which chronological lifespan ([4]; SQR-deficient yeast) did it give?
**A.** no effect

**Q.** What about the chronological lifespan ([4]; WT yeast) of the same molecule?
**A.** extended the lifespan

**Q.** What about the mitochondrial membrane potential (WT and Sqrdl^ΔN/ΔN MEFs; [6]) of the same molecule?
**A.** elevation of membrane potential

**Q.** And the “membrane potential response to succinate, malate, and glutamate and to TMPD with ascorbate” value ([2]; 3 μM NaHS, isolated mitochondria)?
**A.** retained the membrane potential response

**Q.** What about the “concentration at which the membrane potential response was halted” value ([2]; isolated mitochondria, data not shown) of the same molecule?
**A.** more than 30 μM

**Q.** And the “membrane potential of isolated mitochondria” value [2]?
**A.** generated the membrane potential in an SQR-dependent manner

**Q.** And the oxygen consumption [5]?
**A.** induced a small oxygen consumption only in WT mitochondria

**Q.** With `COc1[nH]c(=O)c(C(=O)[C@@H](C)C[C@H](C)[C@@H](Cl)CCl)c(O)c1OC` [atpenin A5] as the molecule, how does the “effect on CATR-induced increase in membrane potential” value (shortened to “effect on CATR-induced increase”) (WT and Sqrdl^ΔN/ΔN MEFs; WT MEFs) read?
**A.** not significantly affected

**Q.** Which mitochondrial membrane potential (WT and Sqrdl^ΔN/ΔN MEFs; [6]) does the source give for `N[C@@H](CSSC[C@H](N)C(=O)O)C(=O)O` [cystine] here?
**A.** elevation of membrane potential

**Q.** `C=C(C)[C@H]1Cc2c(ccc3c2O[C@@H]2COc4cc(OC)c(OC)cc4[C@@H]2C3=O)O1` [rotenone] was tested. Which “effect on CATR-induced increase” value (WT and Sqrdl^ΔN/ΔN MEFs; WT MEFs) did it give?
**A.** not significantly affected

**Q.** Which “effect on CATR-induced increase” value (WT and Sqrdl^ΔN/ΔN MEFs; WT MEFs) does the source give for antimycin A here?
**A.** reduced
